Test results as given in ChEMBL document CHEMBL6127154, “Pursuing Polypharmacology: Benzothiopyranoindoles as G-Quadruplex Stabilizers and Topoisomerase I Inhibitors for Effective Anticancer Strategies” (ACS Med Chem Lett, 2024).
pKd: −log10 of the molar value. Active and inactive are the calls of the source. The calls are words filed in the database; no cut-off is given here.

Assays:
[1] = molecular target: Quadruplex DNA; assay: Binding affinity to human hybrid Tel23 G4 quadruplex DNA assessed as dissociation constant by MST analysis; type: nucleic-acid assay
[2] = organism: Homo sapiens; assay: Inhibition of human Topoisomerase II assessed as relaxation of supercoiled plasmid pBR322 DNA at 2.5 uM incubated for 1 hr by ethidium bromide staining based agarose gel electrophoresis
[3] = tested on: DU-145; assay: Antiproliferative activity against human DU-145 cells assessed as growth inhibition incubated for 48 hrs by SRB assay; type: functional
[4] = molecular target: Quadruplex DNA; assay: Binding affinity to human parallel c-Kit2 G4 quadruplex DNA assessed as dissociation constant by MST analysis; type: nucleic-acid assay
[5] = molecular target: dsDNA; assay: Binding affinity to human duplex ds26 DNA assessed as dissociation constant by MST analysis; type: nucleic-acid assay
[6] = tested on: Quadruplex DNA; assay: Thermal stabilization of FAM labeled human Tel21T G4 quadruplex DNA assessed as change in melting temperature (deltaT1/2) in presence of 50 uM unlabeled duplex competitor (ds26) by FRET assay; type: nucleic-acid assay
[7] = tested on: K562; assay: Antiproliferative activity against human K562 cells assessed as growth inhibition incubated for 48 hrs by SRB assay; type: functional
[8] = tested on: HOP-92; assay: Antiproliferative activity against human HOP-92 cells assessed as growth inhibition incubated for 48 hrs by SRB assay; type: functional
[9] = tested on: U-251; assay: Antiproliferative activity against human U-251 cells assessed as growth inhibition incubated for 48 hrs by SRB assay; type: functional
[10] = tested on: SF-539; assay: Antiproliferative activity against human SF-539 cells assessed as growth inhibition incubated for 48 hrs by SRB assay; type: functional
[11] = tested on: RPMI-8226; assay: Antiproliferative activity against human RPMI-8226 cells assessed as growth inhibition incubated for 48 hrs by SRB assay; type: functional
[12] = tested on: MDA-MB-231; assay: Antiproliferative activity against human MDA-MB-231 cells assessed as growth inhibition incubated for 48 hrs by SRB assay; type: functional
[13] = tested on: HT-29; assay: Antiproliferative activity against human HT-29 cells assessed as growth inhibition incubated for 48 hrs by SRB assay; type: functional
[14] = tested on: MDA-MB-468; assay: Antiproliferative activity against human MDA-MB-468 cells assessed as growth inhibition incubated for 48 hrs by SRB assay; type: functional
[15] = tested on: Quadruplex DNA; assay: Thermal stabilization of human c-Kit2 G4 quadruplex DNA assessed as change in melting temperature (deltaT1/2) incubated for 10 mins by circular dichroism spectroscopic analysis (reference value: 62.4 +/-0.1 degreeC); type: nucleic-acid assay
[16] = tested on: NCI-H322M; assay: Antiproliferative activity against human NCI-H322M cells assessed as growth inhibition incubated for 48 hrs by SRB assay; type: functional
[17] = tested on: Quadruplex DNA; assay: Stabilization of human telomeric 23 hybrid G4 quadruplex DNA incubated for 10 mins by circular dichroism spectroscopic analysis; type: nucleic-acid assay
[18] = molecular target: dsDNA; assay: Binding affinity to human […] Tel26-hy DNA assessed as dissociation constant by MST analysis; type: nucleic-acid assay
[19] = tested on: TK-10; assay: Antiproliferative activity against human TK-10 cells assessed as growth inhibition incubated for 48 hrs by SRB assay; type: functional
[20] = tested on: M14; assay: Antiproliferative activity against human M14 cells assessed as growth inhibition incubated for 48 hrs by SRB assay; type: functional
[21] = tested on: SNB-19; assay: Antiproliferative activity against human SNB-19 cells assessed as growth inhibition incubated for 48 hrs by SRB assay; type: functional
[22] = tested on: Quadruplex DNA; assay: Thermal stabilization of human c-Myc G4 quadruplex DNA assessed as change in melting temperature (deltaT1/2) incubated for 10 mins by circular dichroism spectroscopic analysis (reference value: 70.5 +/- 0.1 degreeC); type: nucleic-acid assay
[23] = tested on: Quadruplex DNA; assay: Thermal stabilization of FAM labeled human Tel21T G4 quadruplex DNA assessed as change in melting temperature (deltaT1/2) in presence of 15 uM unlabeled duplex competitor (ds26) by FRET assay; type: nucleic-acid assay
[24] = tested on: Quadruplex DNA; assay: Thermal stabilization of FAM labeled human Tel21T G4 quadruplex DNA assessed as change in melting temperature (deltaT1/2) in presence of unlabeled duplex competitor (ds26) by FRET assay; type: nucleic-acid assay
[25] = tested on: HOP-62; assay: Antiproliferative activity against human HOP-62 cells assessed as growth inhibition incubated for 48 hrs by SRB assay; type: functional
[26] = tested on: HCC 2998; assay: Antiproliferative activity against human HCC 2998 cells assessed as growth inhibition incubated for 48 hrs by SRB assay; type: functional
[27] = tested on: CCRF-CEM; assay: Antiproliferative activity against human CCRF-CEM cells assessed as growth inhibition incubated for 48 hrs by SRB assay; type: functional
[28] = tested on: HL-60; assay: Antiproliferative activity against human HL-60 cells assessed as growth inhibition incubated for 48 hrs by SRB assay; type: functional
[29] = tested on: SK-OV-3; assay: Antiproliferative activity against human SK-OV-3 cells assessed as growth inhibition incubated for 48 hrs by SRB assay; type: functional
[30] = tested on: NCI-H522; assay: Antiproliferative activity against human NCI-H522 cells assessed as growth inhibition incubated for 48 hrs by SRB assay; type: functional
[31] = molecular target: Quadruplex DNA; assay: Binding affinity to human hybrid c-Myc G4 quadruplex DNA assessed as dissociation constant by MST analysis; type: nucleic-acid assay
[32] = tested on: SW-620; assay: Antiproliferative activity against human SW620 cells assessed as growth inhibition incubated for 48 hrs by SRB assay; type: functional
[33] = tested on: Hs-578T; assay: Antiproliferative activity against human Hs-578T cells assessed as growth inhibition incubated for 48 hrs by SRB assay; type: functional

| inhibition [2] | ΔTm [15] [°C] | Activity [17] | ΔTm [22] [°C] | Structure (SMILES) | GI [3] [µM] | GI [7] [µM] | GI [8] [µM] | GI [9] [µM] | GI [10] [µM] | GI [11] [µM] | GI [12] [µM] | GI [13] [µM] | GI [14] [µM] | GI [16] [µM] | GI [19] [µM] | GI [20] [µM] | GI [21] [µM] | GI [25] [µM] | GI [26] [µM] | GI [27] [µM] | other results |
| --- | --- | --- | --- | --- | --- | --- | --- | --- | --- | --- | --- | --- | --- | --- | --- | --- | --- | --- | --- | --- | --- |
| Active | > 20 | Active | > 20 | CCN(CC)CCn1c2ccc(OC)cc2c2sc3cc(OC)ccc3c(=O)c21 | 1.67 | 0.728 | 1.13 | 1.55 | 1.66 | 1.47 | 1.54 | 1.52 | 1.56 | 1.59 | 2.33 | 1.64 | 2.43 | 2.32 | 1.48 | 1.04 | pKd [1]: 5.05; pKd [4]: 6.52; pKd [5]: 5.89; ΔTm [6]: 1.6 °C; pKd [18]: 4.64; ΔTm [23]: 1.9 °C; ΔTm [24]: 12.6 °C; GI [28]: 1.77 µM; GI [29]: 3.07 µM; GI [30]: 1.71 µM; pKd [31]: 5.68; GI [32]: 0.825 µM; GI [33]: 1.96 µM |
| Active | > 20 | Active | > 20 | CCN(CC)CCn1c2ccc(O)cc2c2sc3cc(OC)ccc3c(=O)c21 | 1.71 | 1.24 | 2.58 | 1.58 | 1.76 | 1.95 | 1.61 | 1.75 | 1.54 | 6.89 | 9.05 | 1.64 | 1.51 | 6.03 | 1.47 | 1.09 | GI [28]: 1.72 µM; GI [29]: 13.4 µM; GI [32]: 0.675 µM; GI [33]: 1.95 µM |
